One data set deals with T1, BSA (Bos taurus, UniProt P02769).
T1 construct: gene ALB
On the set-up: Intact protein LC/MS covalent labelling, fragments in pools of five, 200 uM each, 4 °C. The conditions noted are these: 24 h, 4 °C, pool of five; 200 µM; covalent.

The target of another data set is T2, NUDT7 (Homo sapiens, UniProt P0C024).
T2 construct: residues 14-235, E. coli, pNIC28-Bsa4, N-terminal His6 tag removed by TEV, construct 26672 Da
Also on record: Intact protein LC/MS covalent labelling, fragments in pools of five, 200 uM each, 4 °C. Conditions: 24 h, 4 °C, pool of five; 200 µM; covalent.

Another data set concerns the target T3, OTUB2 (OTUB2A) (Homo sapiens, UniProt Q96DC9).
T3 construct: full length residues 1-234, E. coli BL21(DE3)-R3, His tag removed by TEV, construct 27312 Da
T3 sequence (Q96DC9 1-234): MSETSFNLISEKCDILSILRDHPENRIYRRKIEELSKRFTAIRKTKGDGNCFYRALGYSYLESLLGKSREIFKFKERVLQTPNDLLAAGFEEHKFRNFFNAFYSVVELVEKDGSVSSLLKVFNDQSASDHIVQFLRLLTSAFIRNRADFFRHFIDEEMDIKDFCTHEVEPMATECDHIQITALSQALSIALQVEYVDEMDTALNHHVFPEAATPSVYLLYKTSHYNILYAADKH
Also on record: Intact protein LC/MS covalent labelling, fragments in pools of five, 200 uM each, 4 °C. The conditions noted are these: 24 h, 4 °C, pool of five; 200 µM; covalent.

For another data set, the target named is T4, PCAF (Homo sapiens, UniProt Q92831).
T4 construct: gene KAT2B
T4 sequence (Q92831 whole entry): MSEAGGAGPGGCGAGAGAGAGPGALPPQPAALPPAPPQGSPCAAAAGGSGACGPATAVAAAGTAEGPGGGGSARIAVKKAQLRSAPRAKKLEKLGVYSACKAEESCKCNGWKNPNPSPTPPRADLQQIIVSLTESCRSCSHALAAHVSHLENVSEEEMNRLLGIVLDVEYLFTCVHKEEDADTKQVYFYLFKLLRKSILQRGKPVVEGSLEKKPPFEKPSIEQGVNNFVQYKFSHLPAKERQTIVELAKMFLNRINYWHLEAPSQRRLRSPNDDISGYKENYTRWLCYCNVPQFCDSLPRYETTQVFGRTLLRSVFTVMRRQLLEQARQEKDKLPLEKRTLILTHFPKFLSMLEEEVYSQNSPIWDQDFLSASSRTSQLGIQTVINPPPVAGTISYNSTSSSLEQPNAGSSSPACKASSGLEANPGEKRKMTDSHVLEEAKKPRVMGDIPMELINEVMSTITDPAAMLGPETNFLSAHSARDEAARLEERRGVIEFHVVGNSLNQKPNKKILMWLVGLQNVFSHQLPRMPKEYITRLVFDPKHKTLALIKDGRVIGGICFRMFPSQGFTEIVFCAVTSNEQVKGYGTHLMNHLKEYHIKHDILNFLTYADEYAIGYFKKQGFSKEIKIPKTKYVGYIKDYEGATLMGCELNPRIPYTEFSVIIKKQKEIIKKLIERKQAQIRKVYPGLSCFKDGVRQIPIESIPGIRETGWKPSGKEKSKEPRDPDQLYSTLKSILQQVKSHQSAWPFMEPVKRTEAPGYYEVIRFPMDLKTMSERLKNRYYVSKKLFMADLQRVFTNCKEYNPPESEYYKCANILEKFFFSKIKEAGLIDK
Also on record: Intact protein LC/MS covalent labelling, fragments in pools of five, 200 uM each, 4 °C. Conditions: 24 h, 4 °C, pool of five; 200 µM; covalent.

A short description of data set [1]: in vitro. Conditions: human, ccd841 cells. Also on record: species or system HB2, HEK293.
The nature of data set [2]: in vitro. Also on record: species or system HB2, CCD841. Conditions: human, hek293 cells.
Data set [3] can be described thus: in vitro. Also on record: species or system CCD841, HEK293. The conditions noted are these: human, hb2 cells, read-out: HB-2 Cells Viability (%).

Molecules are shown by their SMILES. Read-outs that look alike come from different tables or passages of the source.

As a reminder, the viability is a read-out of living cells in per cent, often relative to untreated cells.

T2 sequence (P0C024 14-235): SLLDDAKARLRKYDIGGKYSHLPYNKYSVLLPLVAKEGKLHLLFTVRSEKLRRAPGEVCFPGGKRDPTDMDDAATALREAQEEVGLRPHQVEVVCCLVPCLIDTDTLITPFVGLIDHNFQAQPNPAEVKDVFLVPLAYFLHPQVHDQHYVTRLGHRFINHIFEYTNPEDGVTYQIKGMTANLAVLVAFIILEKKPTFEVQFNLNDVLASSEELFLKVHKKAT
T1 sequence (P02769 whole entry): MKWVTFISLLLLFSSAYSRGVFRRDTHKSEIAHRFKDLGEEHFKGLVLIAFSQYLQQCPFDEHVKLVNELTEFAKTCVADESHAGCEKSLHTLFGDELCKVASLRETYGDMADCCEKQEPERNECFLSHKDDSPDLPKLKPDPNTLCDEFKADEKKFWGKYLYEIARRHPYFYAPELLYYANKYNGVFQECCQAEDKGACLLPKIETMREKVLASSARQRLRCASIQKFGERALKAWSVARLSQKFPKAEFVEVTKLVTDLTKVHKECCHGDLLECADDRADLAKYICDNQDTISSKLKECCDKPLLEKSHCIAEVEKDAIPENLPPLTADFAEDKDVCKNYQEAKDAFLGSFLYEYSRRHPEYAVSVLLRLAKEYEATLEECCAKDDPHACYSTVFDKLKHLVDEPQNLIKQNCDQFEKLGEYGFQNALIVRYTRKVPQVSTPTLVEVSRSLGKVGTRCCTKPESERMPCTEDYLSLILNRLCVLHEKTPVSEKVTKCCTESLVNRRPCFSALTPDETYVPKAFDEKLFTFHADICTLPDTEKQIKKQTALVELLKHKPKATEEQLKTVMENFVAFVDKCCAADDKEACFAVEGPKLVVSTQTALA

`O=C(CCl)N1CCN(S(=O)(=O)c2ccc(F)c(Cl)c2)CC1` [PCM-0102343]: the BSA on BSA stood at 0. Besides, the NUDT7 at NUDT7 is recorded as 0.12. The molecule also showed an OTUB2 at OTUB2 (OTUB2A) of 0. At PCAF, this molecule yielded a PCAF of 0. The results for the viability at 48 h, 10 µM in the data set “in vitro [1]”, in the data set “in vitro [2]” and in the data set “in vitro [3]” were 14.3%, 2.6% and 1.4%, respectively.

For `CN(Cc1ccc(Cl)cc1)C(=O)CCl` [PCM-0102344], on BSA, the BSA is listed as 0. The NUDT7 at NUDT7 was found to be 0.34. In addition, at OTUB2 (OTUB2A), the OTUB2 turned out to be 0. For the same molecule, the PCAF on PCAF came to 0. Further, the results for the viability at 48 h, 10 µM in “in vitro [1]”, in “in vitro [2]” and in “in vitro [3]” were 24%, 2.1% and 4.3%, respectively.

On to `CN(C)C(=O)c1cccc(NC(=O)CCl)c1` [PCM-0102345], for which, on BSA, the BSA is recorded as 0. For the same molecule, the NUDT7 at NUDT7 is 0.1. The OTUB2 at OTUB2 (OTUB2A) worked out at 0. The same molecule registered a PCAF at PCAF of 0. For the same molecule, the figures for the viability at 48 h, 10 µM in “in vitro [1]”, in the data set “in vitro [2]” and in the data set “in vitro [3]” were 61.4%, 13.8% and 52.9%, respectively.

Turning to `Cl.O=C(CCl)N1CCN(CC(=O)N2CCCC2)CC1` [PCM-0102346], the BSA at BSA is reported as 0. Further, on NUDT7, the NUDT7 is 0. The OTUB2 on OTUB2 (OTUB2A) is 0. The same molecule gave a PCAF at PCAF of 0. The viability at 48 h, 10 µM in the data set “in vitro [1]” was found to be 80.8%; in “in vitro [2]” it was 99%; in “in vitro [3]”, 98.1%.

For `C=CC(=O)Nc1ccc2c(c1)OCO2` [PCM-0102347], the BSA at BSA was determined as 0. At NUDT7, this molecule yielded an NUDT7 of 0. On OTUB2 (OTUB2A), the OTUB2 is given as 0. Besides, at PCAF, the PCAF came to 0. Also, the figures for the viability at 48 h, 10 µM in “in vitro [1]”, in “in vitro [2]” and in “in vitro [3]” were 106%, 79.7% and 109%, respectively.

`CC(C)(C)c1cc(NC(=O)CCl)on1` [PCM-0102348] came in with a BSA on BSA of 0. The molecule further yielded an NUDT7 at NUDT7 of 0. Further, on OTUB2 (OTUB2A), the OTUB2 was found to be 0. The same molecule registered a PCAF at PCAF of 0. Further, the values for the viability at 48 h, 10 µM in the data set “in vitro [1]”, in “in vitro [2]” and in “in vitro [3]” were 59.9%, 60.9% and 32.8%, respectively.

In the case of `CN(Cc1ccc(Cl)c(Cl)c1)C(=O)CCl` [PCM-0102349], at BSA, the BSA was 0. For the same molecule, the NUDT7 at NUDT7 was 0.59. Further, at OTUB2 (OTUB2A), the OTUB2 is on record as 0. This molecule also displayed a PCAF at PCAF of 0. For the same molecule, the figures for the viability at 48 h, 10 µM in the data set “in vitro [1]”, in “in vitro [2]” and in the data set “in vitro [3]” were 3.9%, 1.4% and 1.7%, respectively.

In the case of `CC(NC(=O)CCl)c1ccc2ccccc2c1` (centres unmarked) [PCM-0102350], at BSA, the BSA was 0. This molecule also registered an NUDT7 on NUDT7 of 0.31. At OTUB2 (OTUB2A), this molecule yielded an OTUB2 of 0.47. Moreover, the PCAF at PCAF was determined as 0. In addition, the viability at 48 h, 10 µM worked out at 70.6% in “in vitro [1]”, 58.5% in “in vitro [2]” and 66% in “in vitro [3]”.

In turn, `Cc1noc(NC(=O)CCl)n1` [PCM-0102351] showed a BSA at BSA of 0. In addition, at NUDT7, the NUDT7 was found to be 0. Also, at OTUB2 (OTUB2A), the OTUB2 worked out at 0. At PCAF, this molecule returned a PCAF of 0. Further, the viability at 48 h, 10 µM in “in vitro [1]” came to 94.9%; in “in vitro [2]” it was 119%; in the data set “in vitro [3]”, 103%.

`Cc1cc(C)c(NC(=O)CCl)c(C)c1` [PCM-0102352] showed a BSA at BSA of 0. Moreover, the NUDT7 on NUDT7 stood at 0. Also, the OTUB2 on OTUB2 (OTUB2A) worked out at 0. Moreover, the PCAF on PCAF was found to be 0. The viability at 48 h, 10 µM in “in vitro [1]” worked out at 78.5%; in the data set “in vitro [2]” it was 72.9%; in the data set “in vitro [3]”, 84.2%.

On to `Cc1ccc(C)c(S(=O)(=O)N2CCN(C(=O)CCl)CC2)c1` [PCM-0102353], for which, on BSA, the BSA was determined as 0. This molecule also had an NUDT7 at NUDT7 of 0.19. The molecule further had an OTUB2 on OTUB2 (OTUB2A) of 0.06. The same molecule gave a PCAF at PCAF of 0. Moreover, the figures for the viability at 48 h, 10 µM in “in vitro [1]”, in “in vitro [2]” and in the data set “in vitro [3]” were 37.7%, 3.2% and 2.1%, respectively.

Take `Cc1ccc(Cl)cc1NC(=O)CCl` [PCM-0102354]: the BSA at BSA was 0. At NUDT7, this molecule yielded an NUDT7 of 0. At OTUB2 (OTUB2A), this molecule returned an OTUB2 of 0. Also, the PCAF on PCAF is listed as 0. In addition, the viability at 48 h, 10 µM was determined as 44.6% in the data set “in vitro [1]”, 9.3% in “in vitro [2]” and 16.3% in the data set “in vitro [3]”.

At BSA, `O=C(CCl)NCC1CCCO1` (centres unmarked) [PCM-0102356] displayed a BSA of 0. For the same molecule, on NUDT7, the NUDT7 came to 0. Further, at OTUB2 (OTUB2A), the OTUB2 is given as 0.05. The PCAF on PCAF stood at 0. Further, the viability at 48 h, 10 µM in “in vitro [1]” stood at 104%; in the data set “in vitro [2]” it was 102%; in “in vitro [3]”, 91.4%.

Turning to `Cl.O=C(CCl)N1CCN(c2ccc(O)cc2)CC1` [PCM-0102357], the BSA on BSA was 0. At NUDT7, this molecule registered an NUDT7 of 0. The OTUB2 on OTUB2 (OTUB2A) is 0. On PCAF, the PCAF turned out to be 0. Besides, the viability at 48 h, 10 µM in the data set “in vitro [1]” was 76.7%; in the data set “in vitro [2]”, 12.7%; in the data set “in vitro [3]”, 31%.

The molecule `Cc1cccc(C(C)C)c1NC(=O)CCl` [PCM-0102358] displayed a BSA on BSA of 0. The molecule further registered an NUDT7 at NUDT7 of 0. The same molecule returned an OTUB2 at OTUB2 (OTUB2A) of 0. The molecule also had a PCAF on PCAF of 0. The results for the viability at 48 h, 10 µM in the data set “in vitro [1]”, in “in vitro [2]” and in the data set “in vitro [3]” were 89.3%, 76.5% and 102%, respectively.

For `CN(C(=O)CCl)C1(c2ccccc2Cl)CCCCC1=O` (centres unmarked) [PCM-0102359], the BSA at BSA turned out to be 0. At NUDT7, this molecule came in with an NUDT7 of 0. Moreover, at OTUB2 (OTUB2A), the OTUB2 is listed as 0. Besides, the PCAF on PCAF is 0. Moreover, the results for the viability at 48 h, 10 µM in “in vitro [1]”, in “in vitro [2]” and in the data set “in vitro [3]” were 104%, 87.5% and 85.2%, respectively.

On BSA, `O=C(CCl)NC(=O)NC12CC3CC(CC(C3)C1)C2` [PCM-0102360] yielded a BSA of 0. Besides, at NUDT7, the NUDT7 was found to be 0. On OTUB2 (OTUB2A), this molecule registered an OTUB2 of 0.12. The molecule further gave a PCAF on PCAF of 0. Besides, the viability at 48 h, 10 µM in “in vitro [1]” was found to be 73.7%; in “in vitro [2]” it was 46.7%; in “in vitro [3]”, 3.1%.

On BSA, `O=C(CCl)N1CCN(S(=O)(=O)c2ccc(F)c(F)c2)CC1` [PCM-0102361] registered a BSA of 0. Further, the NUDT7 at NUDT7 stood at 0. On OTUB2 (OTUB2A), the OTUB2 is listed as 0. Besides, the PCAF at PCAF was 0. The values for the viability at 48 h, 10 µM in the data set “in vitro [1]”, in “in vitro [2]” and in “in vitro [3]” were 48.1%, 5.4% and 2.5%, respectively.

Molecule `O=C1CN(C(=O)CCl)c2ccccc2N1` [PCM-0102362] had a BSA on BSA of 0. The NUDT7 on NUDT7 is on record as 0. The molecule also showed an OTUB2 at OTUB2 (OTUB2A) of 0. The same molecule returned a PCAF on PCAF of 0. Further, the viability at 48 h, 10 µM in “in vitro [1]” stood at 92.6%; in “in vitro [2]”, 61.4%; in “in vitro [3]”, 79.8%.

Molecule `O=C1CC(C(F)(F)F)N(C(=O)CCl)c2ccccc2N1` (centres unmarked) [PCM-0102363] returned a BSA at BSA of 0.1. The molecule further returned an NUDT7 at NUDT7 of 0.28. Moreover, on OTUB2 (OTUB2A), the OTUB2 came to 0. The PCAF at PCAF came out at 0. Further, the viability at 48 h, 10 µM came to 74.6% in the data set “in vitro [1]”, 40.4% in the data set “in vitro [2]” and 59.3% in “in vitro [3]”.

The values are drawn from article PMC6556873, “Rapid Covalent-Probe Discovery by Electrophile-Fragment Screening” (Journal of the American Chemical Society, 2019).
